Converted amounts (≈) assume the structure as drawn. “Also recorded” adds a separate entry of the source. Like-named read-outs stand apart in the source and are kept apart here.
What was measured:
[1] = system: Escherichia coli strain TG1 (sensitive strain); conditions: for Vital Stain Empty Capsules, Sensitive Strain: 40 minutes
[2] = system: Escherichia coli strain TG1 (sensitive strain); experiment: DNA fragmentation / DNA damage level by the process of the invention (microgel, lysis, SYBR Gold); conditions: for DNA damage (in words): 300 micrograms/ml
[3] = system: Escherichia coli strain sensitive (TG1); experiment: Growth inhibition MIC (commercial test), sensitive strain; type: cell-based; conditions: read-out: minimum inhibitory concentration (MIC) of growth
[4] = system: Escherichia coli strain resistant to ciprofloxacin; conditions: 40 minutes, LB medium
[5] = system: Escherichia coli strain resistant to ciprofloxacin; experiment: Growth inhibition MIC (commercial test), resistant strain; type: cell-based; conditions: maximum concentration of the commercial test
[6] = 300 μg/ml, 40 min, exponential phase in LB medium

## CC1(C)S[C@@H]2[C@H](NC(=O)[C@H](N)c3ccccc3)C(=O)N2[C@H]1C(=O)O [Ampicillin, ampicillin]
[1]; [6]
  Vital Stain Empty Capsules: 5.00%
[1]; 300 micrograms/ml, 20 minutes
  Vital Stain Empty Capsules: 0.67%
[1]; 300 micrograms/ml, 24 hours
  Vital Stain Empty Capsules: 75.97%
[2]; [6]
  DNA Fragmentation (percentage of bacteria with fragmented DNA): 4.20%
[2]; 20 minutes
  DNA damage (in words): differences were not observed with respect to the control; also recorded: DNA fragments are not observed
[2]; 24 hours
  DNA damage (in words): massive presence of punctiform degraded DNA fragments; also recorded: the bottom is covered with DNA fragments

## O=C(O)c1cn(C2CC2)c2cc(N3CCNCC3)c(F)cc2c1=O [Ciprofloxacin, ciprofloxacin]
[1]; 0.003 μg/ml, exponential growth in LB medium
  Vital Stain Empty Capsules, Sensitive Strain: 0.70%
[1]; 0.006 μg/ml, exponential growth in LB medium
  Vital Stain Empty Capsules, Sensitive Strain: 0.76%
[1]; 0.012 μg/ml, exponential growth in LB medium
  Vital Stain Empty Capsules, Sensitive Strain: 1.06%
[1]; 0.100 μg/ml, exponential growth in LB medium
  Vital Stain Empty Capsules, Sensitive Strain: 1.40%
[1]; 0.50 μg/ml, LB medium
  Vital Stain Empty Capsules, Sensitive Strain: 0.05%
[1]; 1.00 μg/ml, LB medium
  Vital Stain Empty Capsules, Sensitive Strain: 0.00%
[1]; 2.50 μg/ml, LB medium
  Vital Stain Empty Capsules, Sensitive Strain: 0.15%
[1]; 10.00 μg/ml, LB medium
  Vital Stain Empty Capsules, Sensitive Strain: 0.48%
[1]; 25 μg/ml, 40 min
  Vital Stain Empty Capsules: 0.30%
[3]
  MIC: 0.012 µg/mL (≈ 0.0362 µM)
[4]; 0.50 μg/ml
  Vital Stain Empty Capsules, Resistant Strain: 0.00%
[4]; 1.00 μg/ml
  Vital Stain Empty Capsules, Resistant Strain: 0.10%
[4]; 2.50 μg/ml
  Vital Stain Empty Capsules, Resistant Strain: 0.10%
[4]; 10.00 μg/ml
  Vital Stain Empty Capsules, Resistant Strain: 0.15%
[2]; 1 μg/ml
  minimum incubation time at which evident DNA damage was detected: 5 min
[2]; 25 μg/ml, 40 min
  DNA Fragmentation (percentage of bacteria with fragmented DNA): 100.00%
[2]; 0.006 micrograms/ml, 40 minutes
  DNA damage level: intermediate between level 1 and 2
[2]; 1 microgram/ml
  minimum time of incubation to detect a minimal effect at DNA level (incl. […] processing): 6.5 min
[2]; 10 micrograms/ml for 40 minutes, immediately after the treatment (0 min after wash)
  DNA damage level: 3-4
[2]; 10 micrograms/ml for 40 minutes, then 60 and 90 minutes in ciprofloxacin-free medium, image analysis
  size of the bacterial capsules versus the other assayed times: increases about double
[2]; 10 micrograms/ml for 40 minutes, then washed, image analysis, p<0.05
  time in antibiotic-free medium at which a statistically significant decrease of the fragment diffusion halo begins to be detected: 15 min
[5]
  MIC: > 32 µg/mL

## OO [H2O2, hydrogen peroxide]
[1]; 10 mM, 10 min
  Vital Stain Empty Capsules: 0.30%
  Vital Stain Permeable: 5.00%
[2]; 10 mM, 10 min
  DNA Fragmentation (percentage of bacteria with fragmented DNA): 100.00%
[2]; 10 mM, 10 minutes
  DNA fragmentation (in words): massive Escherichia coli DNA fragmentation

## gentamicin
[1]; [6]
  Vital Stain Empty Capsules: 0.50%
  Vital Stain Permeable: 10.00%
[2]; [6]
  DNA Fragmentation (percentage of bacteria with fragmented DNA): 3.70%
